Read-outs that look alike come from different tables or passages of the source.
Assays:
healthy panelists = test system: healthy panelists
Description: Aqueous solutions of N-methyl-L-serine, ethanolamine and N-methylethanolamine that had been adjusted to have a pH 7 with hydrochloric acid were used as test samples. These test samples were applied to 19 healthy panelists.
One hour and 24 hours after the removal of the patch, the condition of the skin of each panelist was observed.

[1] = test system: Japanese native, male house rabbits
Description: Aqueous solutions of N-methyl-L-serine, ethanolamine and N-methylethanolamine that had been adjusted to have a pH 7 with hydrochloric acid were used as test samples.
Using Japanese native, male house rabbits (body weight: about 3 kg), the test samples were tested according to the above-mentioned the Draize method.
Precisely, the back of each rabbit was shaven and rubbed to form a scratched site (scratched skin). An adhesive tape for patch test (1.2×1.6 cm; Ribbon Aid, registered trade mane, produced by River Tape Chemicals Co.) as wetted with 0.1 ml of water, or 0.1 ml of an aqueous 1% (W/V) solution of the test compound was stuck onto the scratched skin and the normal skin. […] In addition, 48 hours after the peeling of the tape, the condition of the skin was also observed.
The scores as referred to in Table 21 were obtained, and the primary stimulation score was calculated according to the following equation.
Primary Stimulation Score=[(A+B)/2]+[(C+D)/2]+[(E+F)/2]+[(G+H)/2]
Next, from the primary stimulation scores, obtained was the degree of stimulation with N-Methyl-L-Serine or Ethanolamine or N-Methylethanolamineaccording to the criteria shown in Table 22 below.

[2] = test system: Normal human fibroblasts [Detroit-551 (ATCC CCL 110)]; assay: Response to βFGF: procollagenase production by normal human fibroblasts Detroit-551 (Test Examples 4-10); format: cell-based; details: for activity at 1000 µM / activity at 3000 µM: Homo sapiens, Detroit 551, 96 h, read-out: Response to βFGF Increment; for Procollagenase Production: mean ± SD, n = 3
Description: (§1) In the following tests, the procollagenase production was quantified in terms of the collagenase activity as obtained through activation with trypsin.
(§2) It is known that βFGF promotes procollagenase production. In the following tests, therefore, the βFGF activity increment as attained by the compound added was calculated from the procollagenase production, relative to the control using purified water in place of the test compound.
(§3) Normal human fibroblasts [Detroit-551 (ATCC CCL 110) as prepared from the skin of a person] were suspended at a cell density of 1×10^5 cells/ml in the MEM medium, comprising 10% (V/V) FBS, 0.1% (W/V) (as final concentration) of enzymatic hydrolysate of lactalbumin (produced by Sigma Co.), 1% (V/V) non-essential amino acids and 1 mM sodium pyruvate (both produced by Dai-Nippon Pharmaceutical Co.). The suspended cells were seeded into each well of a 12-well plate in an amount of 0.8 ml/well (corresponding to 8×10^4 cells/well) and incubated in a saturated aqueous vapor with 5% CO2 at 37uC.
A cytokine activity enhancer (ethanolamine) as obtained in Example 3 mentioned below was diluted with an MEM medium containing 0.6% (V/V) FBS, 0.1% (W/V) (as final concentration) of enzymatic hydrolysate of lactalbumin, 1% (V/V) non-essential amino acids and 1 mM sodium pyruvate, to be 1 mM, and this was used as a solution to be added to the incubated cells.
(§4) After having been incubated for 24 hours, the culture medium was removed from the plate by suction, and the cells remained were washed twice with the MEM medium containing 0.6% (V/V) (as final concentration) of FBS. Then, the cells were fed with 0.8 ml of the solution prepared above, and were incubated for 4 days.
After the 4 days incubation, the culture medium was removed from the plate by suction, and the cells were fed with 0.8 ml of the MEM medium containing 3 ng/ml βFGF, 0.6% (V/V) FBS, 0.1% (W/V) (as final concentration) of enzymatic hydrolysate of lactalbumin, 1% (V/V) non-essential amino acids and 1 mM sodium pyruvate, and were incubated for 3 days to obtain a culture supernatant.
Next, in the same manner as in Test Example 1, procollagenase was recovered from the CM-Sepharose CL-6B (trade name), and the amount of procollagenase thus collected was measured.
A cytokine activity enhancer (N-methylethanolamine) as obtained in Example 4 to be mentioned hereinunder was tested for the βFGF activity increment, in the same manner as in Test Example 4.
as §3, with “collected” for “prepared”, “medium (hereinafter referred to as MEM2 medium),” for “medium,”, “1% (V/V)” for “0.1% (W/V)”, “of” for “of enzymatic hydrolysate of lactalbumin (produced by Sigma Co.), 1% (V/V)”, “The” for “The suspended”, “37° C.” for “37uC.”
A cytokine activity enhancer (Diisopropanolamine) as obtained in Example 5 mentioned below was diluted with the MEM2 medium containing 0.6% (V/V) FBS to be 3 mM, and this was used as a solution to be added to the incubated cells.
as §4, with “the MEM2” for “the MEM”, “prepared above” for “prepared above,”, “for 2” for “for 4”
After the 2 days incubation, the culture was removed by filtration under suction, and 0.8 ml of the solution was again added to the remaining cells, which were then incubated for 2 days. Thus, the cells were incubated for 4 days in total. […]

[3] = test system: Japanese native, male house rabbits; remark: listed apart in the source
Description: Aqueous solutions of N-Methyl-L-Serine, Ethanolamine and N-Methylethanolamine that had been adjusted to have a pH of 7 with hydrochloric acid were used as test samples.
Using Japanese native, male house rabbits (body weight: about 3 kg), the test samples were tested according to the Draize method (see Appraisal of the Safety of Chemicals in Foods, Drugs and Cosmetics, p. 46, 1959, edited and published by the Deitorial Committee, Association of Food and Drug Officials of U.S.A.).
24 hours after the last application, the tested area of each rabbit was checked to score the erythema, edema, scab and rhagades, if any, formed in the area.
The erythema score, the edema score, the scab score, and the rhagades score as referred to in Table 17 were summed up to obtain the cumulative stimulation score.
Next, from the cumulative stimulation scores, obtained were the degrees of stimulation with N-Methyl-L-Serine, Ethanolamine and N-Methylethanolamine,according to the criteria shown in Table 18 below.

[4] = test system: Normal human fibroblasts [CCD45SK (ATCC CRL 1506)]; assay: Response to TGF-β1: TIMP production by normal human fibroblasts (Test Examples 12-13); format: cell-based
Description: (§5) Normal human fibroblasts [CCD45SK (ATCC CRL 1506) as prepared from the skin of a person] were suspended at a cell density of 1×10^5 cells/ml in the MEM medium, comprising 10% (V/V) FBS and 1% (V/V) non-essential amino acids (produced by Dai-Nippon Pharmaceutical Co.). The suspended cells were seeded into each well of a 12-well plate in an amount of 0.8 ml/well (corresponding to 8×10^4 cells/well) and incubated in a saturated aqueous vapor with 5% CO2 at 37° C.

IFN = details: cited from earlier work
[5] = test system: Normal human fibroblasts [CCD45SK (ATCC CRL 1506)]; assay: Response to βFGF: procollagenase production by normal human fibroblasts CCD45SK (Test Examples 1-3); format: cell-based; details: Test Example 3, 1 mM, 10 ng/ml βFGF
Description: as §1, §2
as §5, with “C. […]” for “C.”
as §4, with “with an” for “with the”, “0.6% (v/v)” for “0.6% (V/V)”, “prepared above added to the cells, which” for “prepared above, and”, “for 2” for “for 4”
After the 2 days incubation, the culture medium was removed from the plate by suction, and the cells were fed with 0.8 ml of the solution and were further incubated for 2 days. This operation was repeated once again. Thus, the cells were processed in the medium containing the cytokine activity enhancer for 6 days in total.
After the above-mentioned process, the culture medium was removed from the plate by suction, and the cells were fed with 0.8 ml of an MEM medium containing 3 ng/ml of βFGF (produced by Boehringer Manheim Co.) and 0.6% (V/V) FBS, and were incubated for 3 days to obtain a culture supernatant.
3.5 ml of 10 mM Tris-HCl buffer [adjusted at pH 7.8 at 4° C., containing 1 mM calcium chloride and 0.05% (W/V) Brij-35] was added to 500 μl of the thus-obtained culture supernatant, and applied to CM-Sepharose CL-6B (trade name, produced by Pharmacia Co., having a bed volume of 0.5 ml) as previously equilibrated with the same buffer.
Next, the inhibitor was removed through treatment with 0.5 ml of the same buffer as above but containing 125 mM sodium chloride (4 times in all, 2 ml of the buffer was used in total), and the procollagenase was recovered through treatment with 0.5 ml of the same buffer as above but containing 500 mM sodium chloride (4 times in all, 2 ml of the buffer was used in total). This was used as a test sample.
The test sample was suitably diluted with a buffer for measurement (mentioned above), 25 μl of the thus-diluted sample was mixed with 25 μl of the buffer, 20 μl of a trypsin solution (as prepared by adding trypsin, Type 12 (produced by Sigma Co.) to the buffer at a concentration of 1 mg/ml) was added thereto, and this was incubated at 35° C. for 5 minutes. Then, 30 μl of a soybean trypsin inhibitor solution (as prepared at a concentration of 3 mg/ml, using the buffer) was added to this to thereby inactivate the trypsin. The resulting solution is designated collagenase solution.
Using type I collagen as labeled with fluorescein isothiocyanate (hereinafter referred to as FITC) (this is an acetic acid solution of FITC-collagen having a concentration of 1 mg/ml; produced by Cosmo-Bio Co.), as a substrate solution, the collagenase activity (unit/ml) of the solution was measured according to the method of Nagai et al. (see Inflammations, Vol. 4, No. 2, p. 123, 1984). […] The procollagenase production (unit/ml of culture medium) was thus obtained and referred to as X1.

[6] = Test Examples 4-5, 1 mM, 4 days, 3 ng/ml βFGF
[7] = Test Examples 6-10, 3 mM, 4 days, 3 ng/ml βFGF, MEM2 medium, control = 100
[8] = Test Examples 6-10, 3 mM, 4 days, 3 ng/ml βFGF, MEM2 medium

NCCO [Example 3, ethanolamine]
panelists with erythema (healthy panelists; 0.05 ml of aqueous 1% (W/V) solution, 24 hours closed patch, 1 hour and 24 hours after removal, 19 panelists): only one panelists had minor erythema
Primary Stimulation Score ([1]; 0.1 ml of aqueous 1% (W/V) solution, patch 24 hours, normal and scratched skin): 0
stimulation to the skin (in words) ([1]; aqueous 1% (W/V) solution): low
activity at 1000 µM [2]: 180%
Procollagenase Production [2, 6]: 21 ± 1.3 unit/ml
Cumulative Stimulation Score ([3]; 0.1 ml of aqueous 0.1% (W/V) solution, once a day for 4 days): 0
cumulative stimulation to the skin (in words) ([3]; aqueous 0.1% (W/V) solution): low
activity at 1000 µM ([4]; Homo sapiens, Fibroblast, 144 h, read-out: Response to TGF-β1 Increment): 160%
TIMP Production ([4]; Test Example 13, 1 mM, 4 days, supernatant 6 days after TGF-β1, mean ± SD, n = 3): 250 ± 9.0 unit/ml

CCC(O)CN (stereo not shown) [Example 9, 1-Amino-2-Butanol]
activity at 3000 µM [2, 7]: 290%
Procollagenase Production [2, 8]: 24 ± 2.3 unit/ml

NCC(O)CN [Example 8, 1,3-Diamino-2-Propanol]
activity at 3000 µM [2, 7]: 150%
Procollagenase Production [2, 8]: 18 ± 0.95 unit/ml

CC1(C)[C@@H](O[C@H]2O[C@H](C(=O)O)[C@@H](O)[C@H](O)[C@H]2O[C@@H]2O[C@H](C(=O)O)[C@@H](O)[C@H](O)[C@H]2O)CC[C@]2(C)[C@H]3C(=O)C=C4[C@@H]5C[C@@](C)(C(=O)O)CC[C@]5(C)CC[C@@]4(C)[C@]3(C)CC[C@@H]12 [Glychrrhizic acid, glycyrrhizic acid]
IFN-producing activity (IFN): has an IFN-producing activity

CNCCO [Example 4, N-methylethanolamine]
panelists with erythema (healthy panelists; in vivo): only one panelists had minor erythema
Primary Stimulation Score ([1]; rabbit, in vivo): 0.25
stimulation to the skin (in words) ([1]; rabbit, in vivo): low
activity at 1000 µM ([2]; Test Examples 4-5, 1 mM, 4 days, 3 ng/ml βFGF, control = 100): 180%
Procollagenase Production [2, 6]: 12 ± 1.7 unit/ml
cumulative stimulation to the skin (in words) ([3]; rabbit, in vivo): low

OCCNCCO [Example 2, diethanolamine]
activity at 1000 µM ([5]; Homo sapiens, Fibroblast, control = 100, read-out: Response to βFGF Increment): 190%
Procollagenase Production ([5]; mean ± SD, n = 3): 14 ± 1.3 unit/ml

CC(N)CO (racemic) [Example 6, D,L-2-Amino-1-Propanol]
activity at 3000 µM [2, 7]: 380%
Procollagenase Production [2, 8]: 33 ± 4.7 unit/ml

CCC(N)CO (stereo not shown) [Example 7, 2-Amino-1-Butanol]
activity at 3000 µM [2, 7]: 190%
Procollagenase Production [2, 8]: 22 ± 2.4 unit/ml

CC(O)CNCC(C)O (stereo not shown) [Example 5, Diisopropanolamine]
activity at 3000 µM [2, 7]: 760%
Procollagenase Production [2, 8]: 65 ± 13 unit/ml
